Laboratory results from patent publication US20180008570A1, “METHOD OF TREATMENT OF A NEUROPATHIC PAIN” (CHAOYANG UNIVERSITY OF TECHNOLOGY, priority 2016, published 2018).
Entries after “also recorded” stand apart in the source; their conditions may differ. Where a name gives a salt, the structure may show the parent alone.

Legend:
[1] = system: male BALB/c mice with sciatic nerve transaction; test: Von Frey test, hindpaw withdrawal threshold in sciatic nerve transaction (SNT) neuropathic pain model; format: in vivo
Procedure: (§1) Lyophilized andrographolide powder is dissolved in DMSO and subsequently diluted to 2.86 mM (1 mg/mL) in 90% normal saline and 10% DMSO for storage. The mixture is injected into the peritoneum (body cavity) of each animal (intraperitoneal injection) based on 5 mg/kg animal weight, for example, a 30 g mouse is injected with 150 μL of saline containing 0.15 mg of andrographolide. NSAID drugs (Diclofenac sodium salt) may be purchased from Sigma (D6899), and diluted to 2.86 mM (0.91 mg/mL) in 90% saline and 10% DMSO for storage. The NSAID drugs is administered via intraperitoneal injection based on […] animal weight, for example, a 30 g mouse is injected with 165 μL of saline containing 0.15 mg of NSAID drugs. The number of molecules administered is less in andrographolide treated mouse than in NSAID drugs treated […]. These drugs are administered daily after surgery.
(§2) An operation for inducing the sciatic nerve transaction of BALB/c mice is processing as follows. After isoflurane anesthesia is applied to male BALB/c mice, which have about 8 weeks of age and have a weight of approximately 30 g, the skin of the right thigh is slit to expose the muscle. Then a blunt instrument is used to spread open the biceps femoris to expose the sciatic nerve and its three nerve branches, which are the sural nerve, common peroneal nerve and tibial nerve. Then a sterilized no. 4-0 chromium wire is used to tie the sciatic nerve, and approximately 2-4 mm of the ends of the common peroneal nerve and the tibial nerve are cut at a position near the tying position. Care is taken to avoid touching and stretching the sural nerve. The muscle and skin are closed in two separate layers. For sham surgery, the sciatic nerve is exposed as described above but no contact is made with the nerve. In this embodiment, the nerve is tied to a level such that there is slight sheathing of the nerve in order to avoid affecting the blood circulation in the area. The mice's behavior is observed after several days of rest.
(§3) The experiment is separated into the following groups that receive different treatments. In the normal group, no surgery is carried out and no andrographolide or NSAID drugs are administered to mice. In the pain group (OP-saline), saline is given to mice daily after surgery. In the control group (Op-NSAIDs), Diclofenac sodium salt is administered to mice daily after surgery. In the experimental group (Op-AP), an andrographolide compound is administered to mice daily after surgery. The means of administration is by intraperitoneal injection. The concentration of drugs for both the control group and the experimental group is 5 mg/kg animal weight, and the average animal weight is 30 g. For the model that uses an in vivo sciatic nerve transaction to simulate pathological pain, the mice behavior is tested on 3, 7, 14 days after surgery. The von Frey hair test is used to determinate the withdrawal threshold of the pathological pain.
Mechanical allodynia threshold at the lateral plantar surface of the hindpaw is assessed before nerve injury (as basal pain threshold) and then testing began on day 3 after surgery and continued for 7 and 14 days after surgery. Mechanical sensitivity is determined by measuring the withdrawal thresholds and reaction ratio to von Frey hairs (Stoelting, Wood Dale, Ill.) using the up and- down method (Dixon 1980) as described by Chaplan (Chaplan, Bach et al. 1994). Animals were placed in a plastic cage with a wire net floor and were allowed to habituate 10-15 min before testing began. Animals were also habituated over a period of 2-3 consecutive days by recording a series of baseline measurements. The filaments were applied in ascending order, each 5 times at an interval of 2-3 s to the plantar surface of the hindpaw (Bourquin, Suveges et al. 2006) and the smallest filament eliciting a foot withdrawal response is considered the threshold stimulus. […]

[2] = system: male BALB/c mice with sciatic nerve transaction; test: Von Frey test, withdrawal rate (reaction types II-IV) with 0.02 g and 0.07 g fibers in SNT neuropathic pain model; format: in vivo; conditions: 5 mg/kg i.p. daily; for withdrawal rate, von Frey fiber of 0.02 g, right hindpaw: 3, 7 and 14 days after surgery
Procedure: as §1, §2, §3
Mechanical allodynia threshold at the lateral plantar surface of the hindpaw is assessed before nerve injury (as basal pain threshold) and then testing began on day 3 after surgery and continued for 7 and 14 days after surgery. Mechanical sensitivity is determined by measuring the withdrawal thresholds and reaction ratio to von Frey hairs (Stoelting, Wood Dale, Ill.) using the up and- down method (Dixon 1980) as described by Chaplan (Chaplan, Bach et al. 1994). […]

[3] = system: glial fibrillary acidic protein (GFAP); test: GFAP immunoreactivity in spinal cord astrocytes (L4-L6), immunohistochemical staining and quantification; format: in vivo, mice; conditions: 5 mg/kg i.p. daily; 7 days after surgery; compared to OP-saline group
Procedure: The following procedure is to ascertain the activity of astrocytic glial cells of the spinal cord. The mice are deeply anaesthetized with sevoflurane and perfused transcardially with saline followed by 0.1 M phosphate buffer solution containing 4% paraformaldehyde. The L4-L6 segment of spinal cord and left and right sciatic nerves are dissected out and post-fixed in a 4% parformaldehye solution at 4° C. overnight, and transferred to a series of solution of phosphate-buffered saline (PBS), graded ethanol/PBS, xylyne, graded xylyne/wax mixture, and finally embedded in wax. A rotary slicer for tissues is used to slice the sample to a transverse section with a thickness of 3 um, and warm water is used to spread and attach to the glass slice.
The wax sections are dewaxed in a series of xylene, graded xylene/ethanol mixture, or graded ethanol mixture, and finally incubation in PBS. […]
The immunoreactivity in each group is analyzed, and the intensity of chromogen staining or fluorescence is determined by photo form 4-5 independent animals. The image of the photo is analyzed using the same settings for quantitative comparison. All measured pixels in a specific area are analyzed by the ImageJ software on 0 (black) to 255 (white) scales. The total number of pixels having a value less than 50 in the photo is calculated and used to estimate the value of immunoreactivity in the area of interest.

O=C(O)Cc1ccccc1Nc1c(Cl)cccc1Cl [NSAIDS, Diclofenac sodium salt, reference compound]
left hindpaw withdrawal threshold (contralateral, mirror pain), persistence of higher threshold ([1]; 5 mg/kg i.p. daily, 7-14 days post-operation, compared to saline group): does not sustain
left hindpaw withdrawal threshold (contralateral, mirror pain) ([1]; 5 mg/kg i.p. daily, 3 days after surgery, compared to saline group): higher (although not significant)

C=C1CC[C@@H]2[C@](C)(CO)[C@H](O)CC[C@@]2(C)[C@@H]1C/C=C1/C(=O)OC[C@H]1O [andrographolide]
right hindpaw withdrawal threshold ([1]; 5 mg/kg i.p. daily after surgery, 3, 7 and 14 days after surgery, compared to OP-saline group): significantly increased; also recorded: significant increase
left hindpaw withdrawal threshold (contralateral, mirror pain) ([1]; 5 mg/kg i.p. daily, 3, 7 and 14 days after surgery, compared to saline group and NSAIDs group): significantly increased
right hindpaw withdrawal threshold, effect compared with NSAID drugs ([1]; 5 mg/kg i.p. daily, 3 and 14 days after surgery, vs Op-NSAIDs (Diclofenac sodium salt)): more significant effect
degree of relief from mechanical allodynia compared with same dose of NSAID drugs ([1]; 5 mg/kg i.p. daily, overall summary): better
withdrawal rate, von Frey fiber of 0.02 g, right hindpaw ([2]; compared with Op-NSAID group): very significant lower
withdrawal rate, von Frey fiber of 0.02 g, right hindpaw ([2]; compared with Op-saline group): very significant low
withdrawal rate, fiber of 0.07 g, difference to Op-NSAID group ([2]; 7-14 days after surgery): significant
withdrawal rate, fiber of 0.07 g, difference to Op-NSAID group ([2]; 3 days after surgery): not significant
withdrawal rate, fiber of 0.07 g ([2]; compared to Op-saline group): reduced pain sensation
GFAP immunoreactivity of the astrocytes, L4-L6 spinal area [3]: reduced trend
